According to patent US8710228B2, “Cycloalkylamine substituted isoquinoline derivatives” (Sanofi, priority 2006, dated 2014):

What follows are compounds tested against T1, ROCKII or ROKα (Rattus norvegicus, UniProt Q62868) (assay: Determination of Rho kinase inhibition (33P-ATP, Streptavidin Flash Plate)). Conditions: ATP 40 μM, activity denoted as pIC50 classes.
T1 construct: purchased Upstate 14-451
Type: biochemical
Experimental: Determination of Rho Kinase Inhibition
To measure Rho-kinase inhibition, IC50 values were determined according to the following protocol:
Buffer: 25 mM Tris pH7.5; 0.02% BSA; 5% Glycerol; 0.008% Triton X100; 2% DMSO, 1 mM DTT; 1 mM MgCl2; 0.5 μCi/well γ^33P ATP
Enzyme: ROCKII or ROKα) (Upstate, Catalog #14-451 Lot # 24880U) 0.1 ng/μl
Final concentration of ATP in reaction mixture 40 μM
Biotinylated substrate, diluted to 0.25 μM with buffer described above (without ATP) • 1. 10 μl Tris buffer (±Inhibitor) • 2. Add 30 μL of enzyme solution • 3. Start the reaction with 30 μL of mix substrate/ATP/ATP33 • 4. Incubate for 20 min at room temperature • 5. Stop reaction with 30 μL of 50 mM EDTA • 6. Transfer 50 μL of stopped solution to Streptavidin Flash Plate plus, Perkin Elmer, SMP 103A • 7. Incubate for 30 min at RT • 8. Wash 4 times with 300 μl of PBS/0.1% Tween 20 • 9. Radioactivity in the well was determined

T1 sequence (Q62868 11-552 limits assumed): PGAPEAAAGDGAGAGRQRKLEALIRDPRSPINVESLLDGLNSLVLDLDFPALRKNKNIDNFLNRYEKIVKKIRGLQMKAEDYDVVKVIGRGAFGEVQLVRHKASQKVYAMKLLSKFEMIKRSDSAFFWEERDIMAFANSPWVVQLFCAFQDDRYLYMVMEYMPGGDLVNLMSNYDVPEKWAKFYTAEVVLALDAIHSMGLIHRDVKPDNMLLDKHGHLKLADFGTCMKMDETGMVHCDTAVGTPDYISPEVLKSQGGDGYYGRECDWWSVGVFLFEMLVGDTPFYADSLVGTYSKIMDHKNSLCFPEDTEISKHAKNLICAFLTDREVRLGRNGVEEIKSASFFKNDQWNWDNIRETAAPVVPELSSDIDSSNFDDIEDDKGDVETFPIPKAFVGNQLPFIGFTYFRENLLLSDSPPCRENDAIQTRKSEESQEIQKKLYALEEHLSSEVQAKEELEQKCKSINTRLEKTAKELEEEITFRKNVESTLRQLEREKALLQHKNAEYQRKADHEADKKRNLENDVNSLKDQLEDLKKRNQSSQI

IC50 | SMILES
+++++ (6.0 ≦ pIC50) | CC1(c2ccc(CNC3CCC(Oc4ccc5cnccc5c4)CC3)cc2)NC(=O)NC1=O.O=C(O)C(F)(F)F (mixture of isomers) [Example 38, 5-(4-{[4-(isoquinolin-6-yloxy)-cyclohexylamino]-methyl}-phenyl)-5-methyl-imidazolidine-2,4-dione]
++++ (5.0 ≦ pIC50 < 6.0) | O=C(O)C(F)(F)F.c1ccc2c(CNC3CCC(Oc4ccc5cnccc5c4)CC3)cccc2c1 (mixture of isomers) [Example 54, [4-(Isoquinolin-6-yloxy)-cyclohexyl]-naphthalen-1-ylmethyl-amine]
++++ (5.0 ≦ pIC50 < 6.0) | O=C(O)C(F)(F)F.c1csc(-c2nc(CNC3CCC(Oc4ccc5cnccc5c4)CC3)cs2)c1 (mixture of isomers) [Example 58, [4-(Isoquinolin-6-yloxy)-cyclohexyl]-(2-thiophen-2-yl-thiazol-4-ylmethyl)-amine]
+++++ (6.0 ≦ pIC50) | N[C@H]1CC[C@@H](Oc2ccc3cnccc3c2Cl)CC1 [Example 13, cis-4-(5-Chloro-isoquinolin-6-yloxy)-cyclohexylamine]
+++++ (6.0 ≦ pIC50) | N[C@H]1CC[C@@H](Oc2ccc3cnccc3c2Br)CC1 [Example 19, cis-4-(5-Bromo-isoquinolin-6-yloxy)-cyclohexylamine]
+++++ (6.0 ≦ pIC50) | c1cncc(CN[C@H]2CC[C@@H](Oc3ccc4cnccc4c3)CC2)c1 [Example 23, cis-[4-(Isoquinolin-6-yloxy)-cyclohexyl]-pyridin-3-ylmethyl-amine]
+++++ (6.0 ≦ pIC50) | CC(=O)Nc1ccc(CN[C@H]2CC[C@@H](Oc3ccc4cnccc4c3)CC2)cc1 [Example 72, cis-N-(4-{[4-(Isoquinolin-6-yloxy)-cyclohexylamino]-methyl}-phenyl)-acetamide]
+++++ (6.0 ≦ pIC50) | CN(C)/C=N/S(=O)(=O)c1cc(CN[C@H]2CC[C@@H](Oc3ccc4cnccc4c3Cl)CC2)ccc1Cl [Example 74, 2-Chloro-5-{cis-[4-(5-chloro-isoquinolin-6-yloxy)-cyclohexylamino]-methyl}-N-dimethylaminomethylene-benzenesulfonamide]
+++++ (6.0 ≦ pIC50) | Clc1c(OC2CCC(NC3CCCCC3)CC2)ccc2cnccc12 (stereo not shown) [Example 80, [4-(5-Chloro-isoquinolin-6-yloxy)-cyclohexyl]-cyclohexyl-amine]
+++++ (6.0 ≦ pIC50) | Cl.N[C@H]1CC[C@@H](Oc2ccc3cnccc3c2-c2ccsc2)CC1 [Example 87, cis-4-(5-Thiophen-3-yl-isoquinolin-6-yloxy)-cyclohexylamine]
+++++ (6.0 ≦ pIC50) | C=Cc1c(O[C@H]2CC[C@@H](N)CC2)ccc2cnccc12.Cl [Example 90, cis-4-(5-Vinyl-isoquinolin-6-yloxy)-cyclohexylamine]
+++++ (6.0 ≦ pIC50) | N[C@H]1CC[C@H](Oc2c(Cl)cc3cnccc3c2Cl)CC1 [Example 96, trans-4-(5,7-Dichloro-isoquinolin-6-yloxy)-cyclohexylamine]

More lines, now with the values behind:

SMILES | IC50
CC(C)CN(C)C1CCC(Oc2ccc3cnccc3c2)CC1.O=C(O)C(F)(F)F (mixture of isomers) [Example 45, Isobutyl-[4-(isoquinolin-6-yloxy)-cyclohexyl]-methyl-amine] | ++++ (5.0 ≦ pIC50 < 6.0)
CN(Cc1cnn(-c2ccc(F)cc2)c1)C1CCC(Oc2ccc3cnccc3c2)CC1.O=C(O)C(F)(F)F (mixture of isomers) [Example 52, [1-(4-Fluoro-phenyl)-1H-pyrazol-4-ylmethyl]-[4-(isoquinolin-6-yloxy)-cyclohexyl]-methyl-amine] | ++++ (5.0 ≦ pIC50 < 6.0)
N[C@H]1CC[C@@H](Oc2ccc3cncc(Cl)c3c2)CC1 [Example 14, cis-4-(4-Chloro-isoquinolin-6-yloxy)-cyclohexylamine] | +++++ (6.0 ≦ pIC50)
CC(C)N[C@H]1CC[C@@H](Oc2ccc3cnccc3c2)CC1 [Example 26, Isopropyl-cis-[4-(isoquinolin-6-yloxy)-cyclohexyl]-amine] | +++++ (6.0 ≦ pIC50)
CCOC(=O)N1CCN(C2CCC(Oc3ccc4cnccc4c3)CC2)CC1.O=C(O)C(F)(F)F (stereo not shown) [Example 44, 4-[4-(Isoquinolin-6-yloxy)-cyclohexyl]-piperazine-1-carboxylic acid ethyl ester] | ++++ (5.0 ≦ pIC50 < 6.0)
c1cc2cc(O[C@H]3CC[C@@H](NC4CC4)CC3)ccc2cn1 [Example 64, cis-Cyclopropyl-[4-(isoquinolin-6-yloxy)-cyclohexyl]-amine] | +++++ (6.0 ≦ pIC50)
N[C@H]1CC[C@@H](Oc2ccc3cnc(Nc4cccc(Cl)c4)cc3c2)CC1 [Example 147, cis-[6-(4-Amino-cyclohexyloxy)-isoquinolin-3-yl]-(3-chloro-phenyl)-amine] | ++++ (5.0 ≦ pIC50 < 6.0)
COc1cc(Nc2cc3cc(O[C@H]4CC[C@@H](N)CC4)ccc3cn2)cc(OC)c1OC.Cl [Example 149, cis-[6-(4-Amino-cyclohexyloxy)-isoquinolin-3-yl]-(3,4,5-trimethoxy-phenyl)-amine] | +++++ (6.0 ≦ pIC50)
N[C@H]1CC[C@@H](Oc2ccc3cnc(Nc4cnccn4)cc3c2)CC1 [Example 150, cis-[6-(4-Amino-cyclohexyloxy)-isoquinolin-3-yl]-pyrazin-2-yl-amine] | ++++ (5.0 ≦ pIC50 < 6.0)
CCc1cncc2ccc(O[C@H]3CC[C@@H](N)CC3)cc12 [Example 156, cis-4-(4-Ethyl-isoquinolin-6-yloxy)-cyclohexylamine] | +++++ (6.0 ≦ pIC50)
